From US12692261B2, “Substituted heterocyclic compounds and therapeutic uses thereof” (Bayer Aktiengesellschaft, priority 2020, dated 2026)

Columns and labels:
full-length human CSNK1D = molecular target: T1, full-length human CSNK1D (Homo sapiens, UniProt P48730); test: CSNK1D Assay (ADP-Glo, 1 μM ATP); type: biochemical; settings: Table 3, read-out: CSNK1D IC50 [mol/l] (median)
T1 construct: N-terminal Glutathion-S-Transferase (GST) and full-length human CSNK1D; purchased Life Technologies PV3665; host or cells: baculovirus infected insect cells
In short: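 Enzyme is N-terminal GST-tagged full-length human CSNK1D from baculovirus-infected insect cells (typically about 0.5 ng/μL), with a biotinylated peptide substrate and 1 μM ATP. Compound pre-incubated 15 min at 22° C in HEPES pH 7.5 buffer; ADP formed is read by ADP-Glo luminescence.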

[1] = molecular target: T2, full-length human CSNK1A1 (Homo sapiens, UniProt P48729); test: CSNK1A1 High ATP Assay (ADP-Glo, 1 mM ATP); type: biochemical; settings: Table 3, read-out: CSNK1A1 high ATP assay IC50 [mol/l] (median);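 also: 30 min kinase reaction at 22 °C with 100 µM peptide substrate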
T2 construct: N-terminal Glutathion-S-Transferase (GST) and full-length human CSNK1A1; purchased Life Technologies PV4174; host or cells: baculovirus infected insect cells
In short: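 GST-tagged full-length human CSNK1A1 from baculovirus-infected insect cells (typically about 0.4 ng/μL), pre-incubated with compound 15 min at 22 °C. Reaction with biotinylated peptide biotin-Ahx-KRRRAL-pS-VASLPGL at 1 mM ATP. ADP formed read by ADP-Glo luminescence.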

T2 sequence (P48729 whole entry): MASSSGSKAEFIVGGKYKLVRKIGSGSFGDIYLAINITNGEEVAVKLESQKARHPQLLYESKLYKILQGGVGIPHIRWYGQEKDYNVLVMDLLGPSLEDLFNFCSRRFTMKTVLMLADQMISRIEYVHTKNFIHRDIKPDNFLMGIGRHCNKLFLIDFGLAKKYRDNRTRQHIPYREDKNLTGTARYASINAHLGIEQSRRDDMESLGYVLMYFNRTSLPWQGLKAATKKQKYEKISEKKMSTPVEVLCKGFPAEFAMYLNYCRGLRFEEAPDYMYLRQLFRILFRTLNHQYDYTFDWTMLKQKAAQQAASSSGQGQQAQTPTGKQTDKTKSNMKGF
T1 sequence (P48730 whole entry): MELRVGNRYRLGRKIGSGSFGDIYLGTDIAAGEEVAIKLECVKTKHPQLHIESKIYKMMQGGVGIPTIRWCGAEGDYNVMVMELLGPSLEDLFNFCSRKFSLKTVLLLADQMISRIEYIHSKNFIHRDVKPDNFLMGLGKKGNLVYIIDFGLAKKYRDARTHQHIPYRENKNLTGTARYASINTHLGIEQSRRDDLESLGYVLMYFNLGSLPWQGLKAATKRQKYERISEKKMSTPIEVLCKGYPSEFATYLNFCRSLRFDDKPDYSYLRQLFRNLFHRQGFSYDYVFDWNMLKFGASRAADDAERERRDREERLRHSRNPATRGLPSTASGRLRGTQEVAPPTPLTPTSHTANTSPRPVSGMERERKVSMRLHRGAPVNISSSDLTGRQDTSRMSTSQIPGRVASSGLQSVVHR

| SMILES | IC50 (full-length human CSNK1D) | IC50 [1] |
| --- | --- | --- |
| O=C(Nc1cc(-c2[nH]c3nc(F)cnc3c2-c2ccccn2)ccn1)C(CC(F)F)c1ccc(F)cc1 (racemic) [Example 60, (2RS)-4,4-difluoro-2-(4-fluorophenyl)-N-{4-[3-fluoro-7-(pyridin-2-yl)-5H-pyrrolo[2,3-b]pyrazin-6-yl]pyridin-2-yl}butanamide] | 12.5 nM | 5.81 nM |
| COc1cnc2c(-c3ccccn3)c(-c3ccnc(NC(=O)C(CC(F)F)c4ccc(F)cc4)c3)[nH]c2c1 (single isomer, unassigned) [Example 82, 4,4-difluoro-2-(4-fluorophenyl)-N-{4-[6-methoxy-3-(pyridin-2-yl)-1H-pyrrolo[3,2-b]pyridin-2-yl]pyridin-2-yl}butanamide] | 3.17 nM | 2.68 nM |
| O=C(Nc1cc(-c2[nH]c3c(OC[C@@H]4COCCO4)cc(F)nc3c2-c2ccccn2)ccn1)C(CC(F)F)c1ccc(F)cc1 (single isomer, unassigned) [Example 59, (2R or S)—N-{4-[7-{[(2S)-1,4-dioxan-2-yl]methoxy}-5-fluoro-3-(pyridin-2-yl)-1H-pyrrolo[3,2-b]pyridin-2-yl]pyridin-2-yl}-4,4-difluoro-2-(4-fluorophenyl)butanamide] | 19.6 nM | 12.7 nM |
| O=C(Nc1cc(-c2[nH]c3c(OCC(F)F)ncnc3c2-c2ccccn2)ccn1)C(CC(F)F)c1ccc(F)cc1 (racemic) [Example 78, (2RS)—N-{4-[4-(2,2-difluoroethoxy)-7-(pyridin-2-yl)-5H-pyrrolo[3,2-d]pyrimidin-6-yl]pyridin-2-yl}-4,4-difluoro-2-(4-fluorophenyl)butanamide] | 5.15 nM | 5.16 nM |
| O=C(Nc1cc(-c2[nH]c3c(OCC4CCCO4)cc(F)nc3c2-c2ccccn2)ccn1)C(CC(F)F)c1ccc(F)cc1 (racemic) [Example 61, (2RS)-4,4-difluoro-N-{4-[5-fluoro-7-{[(2RS)-oxolan-2-yl]methoxy}-3-(pyridin-2-yl)-1H-pyrrolo[3,2-b]pyridin-2-yl]pyridin-2-yl}-2-(4-fluorophenyl)butanamide] | 8.79 nM | 11.1 nM |
| CN1CCN(c2cc(F)nc3c(-c4ccccn4)c(-c4ccnc(NC(=O)C(CC(F)F)c5ccc(F)cc5)c4)[nH]c23)CC1 (racemic) [Example 56, (2RS)-4,4-difluoro-N-{4-[5-fluoro-7-(4-methylpiperazin-1-yl)-3-(pyridin-2-yl)-1H-pyrrolo[3,2-b]pyridin-2-yl]pyridin-2-yl}-2-(4-fluorophenyl)butanamide] | 6.67 nM | 3.19 nM |
| O=C(Nc1cc(-c2[nH]c3c(O[C@H]4CCOC4)cc(F)nc3c2-c2ccccn2)ccn1)C(CC(F)F)c1ccc(F)cc1 (single isomer, unassigned) [Example 55, (2R or S)-4,4-difluoro-N-{4-[5-fluoro-7-{[(3S)-oxolan-3-yl]oxy}-3-(pyridin-2-yl)-1H-pyrrolo[3,2-b]pyridin-2-yl]pyridin-2-yl}-2-(4-fluorophenyl)butanamide] | 24.9 nM | 18.3 nM |
| COc1cnc2c(-c3ccccn3)c(-c3ccnc(NC(=O)C(CC(F)F)c4ccc(F)cc4)c3)[nH]c2c1 (stereo not shown) [Example 81, 4,4-difluoro-2-(4-fluorophenyl)-N-{4-[6-methoxy-3-(pyridin-2-yl)-1H-pyrrolo[3,2-b]pyridin-2-yl]pyridin-2-yl}butanamide] | 5.85 nM | 4.02 nM |
| O=C(Nc1cc(-c2[nH]c3c(OCC(F)F)ncnc3c2-c2ccccn2)ccn1)C(CC(F)F)c1ccc(F)cc1 (single isomer, unassigned) [Example 79, (2R or S)—N-{4-[4-(2,2-difluoroethoxy)-7-(pyridin-2-yl)-5H-pyrrolo[3,2-d]pyrimidin-6-yl]pyridin-2-yl}-4,4-difluoro-2-(4-fluorophenyl)butanamide] | 3.27 nM | 3.1 nM |
| O=C(Nc1cc(-c2[nH]c3c(N4CCOCC4)cc(F)nc3c2-c2ccccn2)ccn1)C(CC(F)F)c1ccc(F)cc1 (racemic) [Example 69, (2RS)-4,4-difluoro-N-{4-[5-fluoro-7-(morpholin-4-yl)-3-(pyridin-2-yl)-1H-pyrrolo[3,2-b]pyridin-2-yl]pyridin-2-yl}-2-(4-fluorophenyl)butanamide] | 9.76 nM | 10.4 nM |
| O=C(Nc1cc(-c2[nH]c3c(O[C@H]4CCOC4)cc(F)nc3c2-c2ccccn2)ccn1)C(CC(F)F)c1ccc(F)cc1 (single isomer, unassigned) [Example 54, (2R or S)-4,4-difluoro-N-{4-[5-fluoro-7-{[(3S)-oxolan-3-yl]oxy}-3-(pyridin-2-yl)-1H-pyrrolo[3,2-b]pyridin-2-yl]pyridin-2-yl}-2-(4-fluorophenyl)butanamide] | 3.7 nM | 4.22 nM |
| O=C(Nc1cc(-c2[nH]c3ccc(Cl)nc3c2-c2ccccn2)ccn1)C(CC(F)F)c1ccc(F)cc1 (racemic) [Example 70, (2RS)—N-{4-[5-chloro-3-(pyridin-2-yl)-1H-pyrrolo[3,2-b]pyridin-2-yl]pyridin-2-yl}-4,4-difluoro-2-(4-fluorophenyl)butanamide] | 9.21 nM | 5.43 nM |
| O=C(Nc1cc(-c2[nH]c3cc(Cl)cnc3c2-c2ccccn2)ccn1)C(CC(F)F)c1ccc(F)cc1 (single isomer, unassigned) [Example 88, (+)—N-{4-[6-chloro-3-(pyridin-2-yl)-1H-pyrrolo[3,2-b]pyridin-2-yl]pyridin-2-yl}-4,4-difluoro-2-(4-fluorophenyl)butanamide] | 7.42 nM | 4.72 nM |
| O=C(Nc1cc(-c2[nH]c3c(O[C@H]4CCOC4)cc(F)nc3c2-c2ccccn2)ccn1)C(CC(F)F)c1ccc(F)cc1 (mixture of isomers) [Example 53, (2RS)-4,4-difluoro-N-{4-[5-fluoro-7-{[(3S)-oxolan-3-yl]oxy}-3-(pyridin-2-yl)-1H-pyrrolo[3,2-b]pyridin-2-yl]pyridin-2-yl}-2-(4-fluorophenyl)butanamide] | 7.31 nM | 6 nM |
| COc1cnc2c(-c3ccccn3)c(-c3ccnc(NC(=O)C(CC(F)F)c4ccc(F)cc4)c3)[nH]c2c1 (single isomer, unassigned) [Example 83, 4,4-difluoro-2-(4-fluorophenyl)-N-{4-[6-methoxy-3-(pyridin-2-yl)-1H-pyrrolo[3,2-b]pyridin-2-yl]pyridin-2-yl}butanamide] | 35.3 nM | 9.86 nM |
| O=C(Nc1cc(-c2[nH]c3ccc(F)nc3c2-c2ccccn2)ccn1)C(CC(F)F)c1ccc(F)cc1 (racemic) [Example 1, 4,4-difluoro-2-(4-fluorophenyl)-N-{4-[5-fluoro-3-(pyridin-2-yl)-1H-pyrrolo[3,2-b]pyridin-2-yl]pyridin-2-yl}butanamide] | 15.7 nM | 61.3 nM |
| Cc1cnc2c(-c3ccccn3)c(-c3ccnc(NC(=O)C(CC(F)F)c4ccc(F)cc4)c3)[nH]c2n1 (single isomer, unassigned; (+)) [Example 86, (+)-4,4-difluoro-2-(4-fluorophenyl)-N-{4-[3-methyl-7-(pyridin-2-yl)-5H-pyrrolo[2,3-b]pyrazin-6-yl]pyridin-2-yl}butanamide] | 6.16 nM | 2.89 nM |
| O=C(Nc1cc(-c2[nH]c3ccc(F)nc3c2-c2ccccn2)ccn1)[C@@H](CC(F)F)c1ccc(F)cc1 (single isomer, unassigned) [Example 2] | 2.63 nM | 5 nM |
| O=C(Nc1cc(-c2[nH]c3c(OC[C@H]4COCCO4)cc(F)nc3c2-c2ccccn2)ccn1)C(CC(F)F)c1ccc(F)cc1 (single isomer, unassigned) [Example 52, (2R or S)—N-{4-[7-{[(2R)-1,4-dioxan-2-yl]methoxy}-5-fluoro-3-(pyridin-2-yl)-1H-pyrrolo[3,2-b]pyridin-2-yl]pyridin-2-yl}-4,4-difluoro-2-(4-fluorophenyl)butanamide] | 23.4 nM | 17.2 nM |
| O=C(Nc1cc(-c2[nH]c3ccnnc3c2-c2ccccn2)ccn1)C(CC(F)F)c1ccc(F)cc1 (single isomer, unassigned) [Example 66, (2R or 2S)-4,4-difluoro-2-(4-fluorophenyl)-N-{4-[7-(pyridin-2-yl)-5H-pyrrolo[3,2-c]pyridazin-6-yl]pyridin-2-yl}butanamide] | 4.59 nM | 2.43 nM |
| O=C(Nc1cc(-c2[nH]c3ncc(F)nc3c2-c2ccccn2)ccn1)C(CC(F)F)c1ccc(F)cc1 (racemic) [Example 62, (2RS)-4,4-difluoro-2-(4-fluorophenyl)-N-{4-[2-fluoro-7-(pyridin-2-yl)-5H-pyrrolo[2,3-b]pyrazin-6-yl]pyridin-2-yl}butanamide] | 8.9 nM | 3.92 nM |
| O=C(Nc1cc(-c2[nH]c3c(O[C@H]4CCOC4)ncnc3c2-c2ccccn2)ccn1)C(CC(F)F)c1ccc(F)cc1 (single isomer, unassigned) [Example 74, (2R or S)-4,4-difluoro-2-(4-fluorophenyl)-N-{4-[4-{[(3S)-oxolan-3-yl]oxy}-7-(pyridin-2-yl)-5H-pyrrolo[3,2-d]pyrimidin-6-yl]pyridin-2-yl}butanamide] | 55.4 nM | 35.8 nM |
| O=C(Nc1cc(-c2[nH]c3cc(Cl)nnc3c2-c2ccccn2)ccn1)C(CC(F)F)c1ccc(F)cc1 (racemic) [Example 68, (2RS)—N-{4-[3-chloro-7-(pyridin-2-yl)-5H-pyrrolo[3,2-c]pyridazin-6-yl]pyridin-2-yl}-4,4-difluoro-2-(4-fluorophenyl)butanamide] | 14.4 nM | 6.93 nM |
